Assays:
[1] = In vivo delivery of lipid nucleic acid mixture by gavage (blood and lung); design: species or system C57 mice; conditions: gavage 200 μl/animal; 6 hours after gavage; FIG. 14
Method: 1. Preparation of lipid nucleic acid mixture: the mixture of lipid No. 11 or No. 12 with nucleic acid, and the mixture of the lipid combination of No. 1/2/4/9/14/18/19/20/21/22/23/24/25/26/27/28/29/30/32, No. 3/8/10/11/12/13, and No. 6/15/16/17/31 with nucleic acid were prepared by reverse evaporation and boiling method (refer to steps 2.1-2.2).
2. Gavage were performed on 6-8 weeks old male C57 mice: 200 μl/aminal, grouped as follows:
(1) Control group (free uptake group): no treatment or HJT-sRNA-m7 was given by gavage;
(2) Lipid No. 11 (18:0/18:2) group: lipid No. 11 (18:0/18:2) or a mixture of lipid No. 11 (18:0/18:2) and HJT-sRNA-m7 were given by gavage;
(3) Lipid No. 12 (16:0/18:2) group: lipid No. 12 (16:0/18:2) or a mixture of lipid No. 12 (16:0/18:2) and HJT-sRNA-m7 were given by gavage;
3. Sample collection: 6 hours after gavage, mouse whole blood (500 μl) and lung (110 mg) were collected by 1.5 mL TRIzol-LS or 3 mL TRIzol, respectively, homogenized and then frozen under −80° C. for storage.
4. […]

A549 cell = assay: RT-qPCR detection of nucleic acid delivered by lipid into A549 cells; assay type: cell-based, human; conditions: various small RNA 200 nM; reverse evaporation method; 3 hours; compared with the control; FIG. 11A-C
Method: 3.1 NCI-N87 cell (gastric cancer cell), MRC-5 cell (lung fibroblast), A549 cell (lung cancer cell) were cultured to logarithmic growth phase, and then plated to a six-well plate at cell density of 1×10^6/2 mL medium/well; MRC-5 cell was cultured in Eagle's MEM medium (MEM, Gibco); A549 cell was cultured in Ham's F-12 medium (HyClone); NCI-N87 cell was cultured in RPMI-1640 medium (HyClone); followed by incubation overnight at 37° C., and the follow-up experiments were performed after the cells were attached to the walls.
4) Lipid nucleic acid mixture: the mixture of lipid and HJT-sRNA-m7 prepared from the step 2 were added into cells and mixed, and the final concentration of RNA was kept at 200 nM.
3.3 After co-incubation with the small RNA for 3 hours, the cells were washed 2-3 times with PBS. The cells were harvested with TRIzol lysis buffer, and the total RNA was extracted. The abundance of small RNA that entered cells was detected by RT-qPCR, and the localization of RNA was detected by fluorescence in situ hybridization; protocols of each detection method were as follows:
3.3.1 RT-qPCR Detection of Small RNA (Taqman Probe Method)
3.3.2 RT-qPCR Detection of Small RNA (SYBR Green Dye Method)
(§1) Mixtures of soybean PC, lipid No. 11 (18:0/18:2) and lipid No. 12 (16:0/18:2), and various small RNA (see below Table 3) were prepared by the reverse evaporation method and then added into A549 cell line (the final concentration of sRNA was 200 nM); the negative control group (control) was directly added with the same concentration of sRNA; the positive control group (RNAimax) was transfected with Lipofectamine RNAimax (transfection reagent 6 μl/well). The abundance of sRNA in the cells was detected by Taqman probe after 3 hours, and the relative expression level of sRNA was calculated by 2-ΔCt method.
3.1.3 After co-incubation with cells for 12-24 hours, the cells were washed twice with PBS. The cells were harvested with TRIzol lysis buffer (purchased from Sigma-Aldrich), and total RNA was extracted. The abundance of HJT-sRNA-m7 that entered the cells was detected by RT-qPCR; the protocols were as follows:
4368813) was used to reverse transcribe sRNA to cDNA by stem-loop method (see, e.g. Real-time quantification of microRNAs by stem-loop RT-PCR, Nucleic Acids Res. 2005 Nov. 27; 33(20):e179, incorporated by reference herein).

A549 cell line = assay: Fluorescence in situ hybridization (FISH) of small RNA delivered by lipid; assay type: cell-based, human; conditions: reverse evaporation method; FIG. 12
Method: 3.3.3 Fluorescence In Situ Hybridization (FISH) of Small RNA
9) The culture plate was placed in a hybridization cassette in hybridization buffer (50% formamide, 5×SSC, 5× Denharts, 250 μg/mL yeast RNA, 500 μg/mL herring sperm DNA) and pre-incubated at room temperature for 1 hour.
10) Add RNA probes (HJT-sRNA-m7 probe: 5′-[…]-3′ (SEQ ID NO: 27), Scrambled probe: 5′-[…]-3′ (SEQ ID NO: 28), U6 probe: 5′-[…]-3′ (SEQ ID NO: 29)) to the hybridization buffer (the concentration of RNA probes was 0.1-0.2 ng/μ1), denature at 85° C. for 5 min, and quickly place it on ice. […]
as §1

[2] = tested on: 3′UTRs of their target genes; assay: Luciferase with wild-type or mutated 3′UTR of target gene after lipid-mediated sRNA delivery; assay type: cell-based; conditions: FIG. 13
Excerpt: It can be used as a means for the delivery of nucleic acid drug.

Structure (SMILES) | entry of HJT-sRNA-m7 into blood and lung (RT-qPCR) [1] | abundance of sRNA in the cells (Taqman probe) (A549 cell) | localization of delivered nucleic acid (FISH) (A549 cell line) | effect on the mutated 3′UTR of target genes (Luciferase) [2] | relative expression level of the Luciferase with the wild-type 3′UTR [2]
CCCCC/C=C\C/C=C\CCCCCCCC(=O)O[C@H](COC(=O)CCCCCCCCCCCCCCCCC)COP(=O)([O-])OCC[N+](C)(C)C [No. 11, trimethyl(2-{[(2R)-2-[(9Z,12Z)-octadeca-9,12-dienoyloxy]-3-(octadecanoyloxy)propylphosphonato]oxy}ethyl)azanium] | could promote entry of small fragments of nucleic acids into the blood and lung | could effectively facilitate nucleic acid molecules of different sequences entry into various cells | entered into cytoplasm and were primarily localized in cytoplasm | did not act on the mutated 3′UTR of their target genes | reduced the relative expression level of the Luciferase with the wild-type 3′UTR in the target gene
CCCCC/C=C\C/C=C\CCCCCCCC(=O)O[C@H](COC(=O)CCCCCCCCCCCCCCC)COP(=O)([O-])OCC[N+](C)(C)C [No. 12, (2-{[(2R)-3-(hexadecanoyloxy)-2-[(9Z,12Z)-octadeca-9,12-dienoyloxy]propylphosphonato]oxy}ethyl)trimethylazanium] | could promote entry of small fragments of nucleic acids into the blood and lung | could effectively facilitate nucleic acid molecules of different sequences entry into various cells | entered into cytoplasm and were primarily localized in cytoplasm | did not act on the mutated 3′UTR of their target genes | reduced the relative expression level of the Luciferase with the wild-type 3′UTR in the target gene

From patent US20210108198A1, “APPLICATION OF COMPOUND OR TRADITIONAL CHINESE MEDICINE EXTRACT IN PREPARATION OF NUCLEIC ACID DELIVERY AGENT AND RELATED PRODUCTS THEREOF” (INSTITUTE OF BASIC MEDICAL SCIENCES CHINESE ACADEMY OF …, priority 2017, published 2021)
